# Source: US12692463B2, “Blends of alcohol ethoxylate and methyl ester sulfonate in unit dose products for improved mildness” (Henkel AG & Co. KGaA, priority 2023, dated 2026)
# Experiment: Percent swelling of water-soluble film strips submerged in detergent formula
# Assay type: physicochemical
# Settings: Minitab mixture regression on solvent component proportions, Formulas 7-16
# Protocol: The term % swelling as used in the present application means the percent increase or decrease in weight, for example the weight of a pouch strip, such as a polyvinyl alcohol strip, following submersion in a detergent composition for a given period of time, for example twenty-four hours (hr). The % swelling is calculated as described in the examples by taking a post-soaking weight, subtracting an initial, pre-soaking weight, and dividing by the initial, pre-soaking weight. To measure the percent (%) swelling, a fresh sheet of film was traced and cut into three identical film strips (3 cm wide by 8.5 cm long) for each formula being tested. Strips were labeled #1, #2, and #3 and placed into a tared petri dish one by one, recording the weights of each piece of film individually. Strips #1 and #2 were placed parallel to one another on the bottom of the petri dish and strip #3 was laid perpendicularly over strips #1 and #2. The petri dish was then filled half way, ensuring all film strips were submerged in the formula being tested. The petri dish was wrapped with parafilm, sealing around the edge of the petri dish. […] The cleaned film strip #3 was placed into a clean, tared petri dish lid, and the final weight of the film strip was recorded. […] Percent (%) swelling ratios were determined for Formulas 7-16 using polyvinyl alcohol (PVA) strips. […]
row,Compound,estimated regression coefficient for % swelling
1,OCC(O)CO [Glycerin],0.8037
2,"CC(O)CO (centres unmarked) [PG, Propylene Glycol]",0.4263
